Experimental data from patent US20250345378A1 (priority 2022, published 2025).
Like-named read-outs stand apart in the source and are kept apart here.

What was measured:
[1] = system: E. coli strain ATCC 700928; assay: Mouse UTI model, CK570 IU or IV: bacterial burden in kidneys, bladder, urine; type: in vivo, C3H/OuJ mice; settings: each tissue, all timepoints
Text: The vehicle used in this study was 1×TBS. […] C3H/OuJ female mice, aged approximately 8 weeks and weighing 21 to 24 grams, were used in this study. Mice were housed with 1 to 5 animals per cage and were provided food (5P76 Prolab isopro irradiated lab diet) and water ad libitum. […] Each mouse was then placed on a board, ventral side up, with the nose inserted into a nose cone supplying isoflurane. The lower abdomen was gently massaged to expel any urine in the bladder. […] For IV administration, mice were manually restrained in a restrainer device, and study treatment was administered via the lateral tail vein. […] For IU administration, the same method was used as for the original administration of E. coli. A dose volume of 50 μL was used for IU administration. […] All CFU data were log-transformed.

[2] = system: 304 E. coli clinical isolates; type: cell-based, Escherichia coli
Procedure: (§1) Phage cocktail CK618 was tested in combination with and alongside antibiotics against two isolate panels. The first assay used a panel of 88 contemporaneous urinary tract infection (UTI) isolates from North America, Europe, Latin America, and Asia. […] The second assay used a panel made up of a 300-strain clinical isolate panel (Table 14) with an additional 4 strains of interest. […] Four of the same SOC antibiotics tested against the 88-isolate panel were tested against this panel. The non-SOC antibiotics were not included due to their limited use in clinical settings, and nitrofurantoin was not included due to the low probability of resistance to this drug.
(§2) For both isolate panels, antibiotic concentrations tested were determined by using Clinical and Laboratory Standards Institute (CLSI) or European Committee on Antimicrobial Susceptibility Testing (EUCAST) breakpoints at concentrations that kill susceptible isolates but allow intermediate or resistant isolates to grow in the standard AST microdilution assay (Table 17).
(§3) The composition of the proposed Phase 2 CRISPR-enhanced bacteriophage (CRISPR-phage, hereafter termed ‘crPhage’) cocktail (CK618) has been updated from the CK570 to include six bacteriophages as compared to three bacteriophages in CK570. Bacteriophage cocktail CK618, was prepared such that all bacteriophages had equivalent titers in the final cocktail. The cocktail was then mixed with bacteria to obtain final titers of 1×10^6 plaque-forming unit (PFU)/mL/phage for the cocktail and 1×10^5 colony-forming unit (CFU)/mL for the bacteria, resulting in a multiplicity of infection (MOI) of 10 for each bacteriophage in a sample. Briefly, 5 μl of each sample (CK618 alone, CK618 and antibiotics, antibiotics alone, or medium alone) was added to 5 μl of optical density (OD)-normalized bacterial isolate and 40 μl LB medium. Reactions were incubated at 37° C. with shaking and OD measurements were taken each hour for 20 hours.
(§4) Host range percentage is the percent of isolates that responded to treatment of antibiotics or CK618. In the case of the 88-isolate panel, results were analyzed on the complete panel as well as the subset of classified as multidrug-resistant (MDR) (n=21) and beta-lactam-resistant (n=31).
(§5) The first assay used a panel of 88 contemporaneous isolates. Twenty-one of those strains are classified as MDR, with resistance to 3 or more antibiotic classes. […] The second assay used the panel made up of a 300-strain clinical isolate panel with an additional 4 strains of interest.
(§6) Antibiotic concentrations tested were determined by using CLSI or EUCAST breakpoints at concentrations that kill susceptible strains but allow intermediate or resistant strains to grow in the standard AST microdilution assay (Table 27). LBP-EC01 v.2 was combined with bacteria resulting in a MO of 10 for each bacteriophage in a sample. In the case of the 88-isolate panel, results were analyzed on the complete panel as well as the subset of isolates classified as multidrug-resistant (MDR) (n=21) and beta-lactam-resistant (n=31).

[3] = system: 88 urinary tract infection E. coli isolates; type: cell-based, Escherichia coli; settings: for Host Range % on MDR Subset (n = 21), Combination: Antibiotic + LBP-EC01 v.2 / Host Range % on all Strains (n = 88), Combination: Antibiotic + LBP-EC01 v.2 / Host Range % on Beta-lactam-Resistant Subset (n = 31), Combination: Antibiotic + LBP-EC01 v.2: antibiotic combined with LBP-EC01 v.2; for Host Range % on all Strains (n = 88), Combination: Antibiotic + CK618 v.2: antibiotic at breakpoint concentration plus cocktail 1 × 10^6 PFU/ml per bacteriophage
Procedure: as §1, §2, §3, §4, §5, §6

[4] = system: E. coli strains b3411 and b3370; assay: In vitro CFU reduction by purified colicins; type: cell-based, Escherichia coli; settings: ~30 min, then regrowth
Procedure: Colicins produced an immediate significant reduction of CFU/mL (˜30 min) after adding colicins before bacterial regrowth.

E. coli strain b3370 = assay: Neutropenic thigh model, Colicin 10 and Colicin U (Study 23-END-056); type: in vivo, ICR mouse; settings: 4 h and 7 h; 295 nM Colicin 10, 29.5 nM Colicin U
Procedure: Study 23-END-056 was performed to evaluate the statistical difference between Control and Colicin treatment and sustained reduction of bacteria burden to LOD with colicin treatment in an ICR mouse model (FIG. 51). Specifically, the efficacy of 29.5 nM Colicin U, and combination therapy of both of 295 nM Colicin 10 & 29.5 nM Colicin U were evaluated in an ICR mouse model compared with no treatment (Table 40 and FIG. 52). In these experiments, due to high endotoxin, Colicin U was diluted 1:10 more than Colicin 10. At the 4 h and 7 h time points, treatment with 295 nM Colicin 10 lowered CFU, whereas no change was seen after treatment with 29.5 Colicin U.

[5] = 88-isolate panel, listed as Fosfomycin 8
[6] = 88-isolate panel, listed as Fosfomycin 64

O=C(O)c1cn(C2CC2)c2cc(N3CCNCC3)c(F)cc2c1=O [Ciprofloxacin]
bacterial burden, positive control [1]: significantly reduced bacterial burden to the LOD in each tissue

C[C@@H]1O[C@@H]1P(=O)(O)O [Fosfomycin]
host range performance compared with antibiotics / combination (in words) ([2]; 88- and 304-isolate panels, all, MDR and beta-lactam-resistant strains): strong activity across all strains
Host range % on MDR subset (n = 93), Combination: Antibiotic + LBP-CK618 ([2]; 304-isolate panel): 96.8%
Host range % on MDR subset (n = 93), Single agent treatment ([2]; 304-isolate panel): 83.9%
Host range % on beta-lactam-resistant subset (n = 91), Combination: Antibiotic + LBP-CK618 ([2]; 304-isolate panel): 96.7%
Host range % on beta-lactam-resistant subset (n = 91), Single agent treatment ([2]; 304-isolate panel): 86.8%
Host Range % on MDR Subset (n = 93), Combination Antibiotic + LBP-EC01 v.2 ([2]; 304-isolate panel, MDR subset, antibiotic combined with LBP-EC01 v.2): 96.8%
Host Range % on all Strains (n = 304), Combination: Antibiotic + LBP-EC01 v.2 ([2]; 304-isolate panel, all strains, antibiotic combined with LBP-EC01 v.2): 97.0%
Host Range % on all Strains (n = 304), Single agent treatment ([2]; 304-isolate panel, all strains, single agent): 87.5%
Host Range % on Beta-lactam-Resistant Subset (n = 91), Combination: Antibiotic + LBP-EC01 v.2 ([2]; 304-isolate panel, beta-lactam-resistant subset, antibiotic combined with LBP-EC01 v.2): 96.7%
Host range % on beta-lactam-resistant subset (n = 91), Single agent treatment ([2]; 304-isolate panel, beta-lactam-resistant subset, single agent): 86.8%
Host Range % on MDR Subset (n = 21), Combination: Antibiotic + LBP-EC01 v.2 ([3]; 88-isolate panel, MDR subset, listed as Fosfomycin 8): 95.2%
Host Range % on MDR Subset (n = 21), Combination: Antibiotic + LBP-EC01 v.2 ([3]; 88-isolate panel, MDR subset, listed as Fosfomycin 64): 100.0%
Host Range % on MDR Subset (n = 21), Single agent treatment ([3]; 88-isolate panel, MDR subset, single agent, listed as Fosfomycin 8): 90.5%
Host Range % on MDR Subset (n = 21), Single agent treatment ([3]; 88-isolate panel, MDR subset, single agent, listed as Fosfomycin 64): 96.8%
Host Range % on all Strains (n = 88), Combination: Antibiotic + LBP-EC01 v.2 ([3]; 88-isolate panel, all strains, listed as Fosfomycin 8): 93.9%
Host Range % on all Strains (n = 88), Combination: Antibiotic + LBP-EC01 v.2 ([3]; 88-isolate panel, all strains, listed as Fosfomycin 64): 98.5%
Host Range % on all Strains (n = 88), Single agent treatment ([3]; 88-isolate panel, all strains, single agent, listed as Fosfomycin 8): 85.2%
Host Range % on all Strains (n = 88), Single agent treatment ([3]; 88-isolate panel, all strains, single agent, listed as Fosfomycin 64): 93.2%
Host Range % on Beta-lactam-Resistant Subset (n = 31), Combination: Antibiotic + LBP-EC01 v.2 ([3]; 88-isolate panel, beta-lactam-resistant subset, listed as Fosfomycin 8): 94.6%
Host Range % on Beta-lactam-Resistant Subset (n = 31), Combination: Antibiotic + LBP-EC01 v.2 ([3]; 88-isolate panel, beta-lactam-resistant subset, listed as Fosfomycin 64): 100.0%
Host Range % on Beta-lactam-Resistant Subset (n = 31), Single agent treatment ([3]; 88-isolate panel, beta-lactam-resistant subset, single agent, listed as Fosfomycin 8): 87.1%
Host Range % on Beta-lactam-Resistant Subset (n = 31), Single agent treatment ([3]; 88-isolate panel, beta-lactam-resistant subset, single agent, listed as Fosfomycin 64): 95.7%
Host Range % on Beta-lactam-Resistant Subset (n = 31), Combination: Antibiotic + CK618 v.2 [3, 5]: 94.6%
Host Range % on Beta-lactam-Resistant Subset (n = 31), Single agent treatment [3, 5]: 87.1%
Host Range % on MDR Subset (n = 21), Combination: Antibiotic + CK618 v.2 [3, 5]: 95.2%
Host Range % on MDR Subset (n = 21), Single agent treatment [3, 5]: 90.5%
Host Range % on Beta-lactam-Resistant Subset (n = 31), Combination: Antibiotic + CK618 v.2 [3, 6]: 100.0%
Host Range % on Beta-lactam-Resistant Subset (n = 31), Single agent treatment [3, 6]: 95.7%
Host Range % on MDR Subset (n = 21), Combination: Antibiotic + CK618 v.2 [3, 6]: 100.0%
Host Range % on MDR Subset (n = 21), Single agent treatment [3, 6]: 96.8%
Host Range % on all Strains (n = 88), Single agent treatment ([3]; antibiotic at breakpoint concentration (Table 17), cocktail 1 × 10^6 PFU/ml per bacteriophage, MOI 10, listed as Fosfomycin 8): 85.2%
Host Range % on all Strains (n = 88), Single agent treatment ([3]; antibiotic at breakpoint concentration (Table 17), cocktail 1 × 10^6 PFU/ml per bacteriophage, MOI 10, listed as Fosfomycin 64): 93.2%
Host Range % on all Strains (n = 88), Combination: Antibiotic + CK618 v.2 ([3]; listed as Fosfomycin 8): 93.9%
Host Range % on all Strains (n = 88), Combination: Antibiotic + CK618 v.2 ([3]; listed as Fosfomycin 64): 98.5%

B1: Colicin 10 (protein)
chain: MDKVTDNSPDVESTESTEGSFPTVGVDTGDTITATLATGTENVGGGGGAFGGASESSAAIHATAKWSTAQLKKHQAEQAARAAAAEAALAKAKSQRDALTQRLKDIVNDALRANAARSPSVTDLAHANNMAMQAEAERLRLAKAEQKAREEAEAAEKALREAERQRDEIARQQAETAHLLAMAEAAEAEKNRQDSLDEEHRAVEVAEKKLAEAKAELAKAESDVQSKQAIVSRVAGELENAQKSVDVKVTGFPGWRDVQKKLERQLQDKKNEYSSVTNALNSAVSIRDAKKTEVQNAEIKLKEAKDALEKSQVKDSVDTMVGFYQYITEQYGEKYSRIAQDLAEKAKGSKFNSVDEALAAFEKYKNVLDKKFSKVDRDDIFNALESITYDEWAKHLEKISRALKVTGYLSFGYDVWDGTLKGLKTGDWKPLFVTLEKSAVDFGVAKIVALMFSFIVGAPLGFWGIAIITGIVSSYIGDDELNKLNELLGI
modifications: Colicin 10
CFU reduction after adding colicins [4]: CFU reduction was observed
CFU in mouse thigh compared with no treatment (E. coli strain b3370): lowered CFU

B2: Colicin U (protein)
chain: MPGFNYGGHGDGTGWSSERGDGPAPGGGMQGNGGGHSGNNDSGSNSVSQQISAIQNDQKLKQKVVNMLIAARKMNPDAKMILGSIAPSGVMQVTIEGVTSTQARQLGLGGLVMGYNASGVIGAVGEIDTGHRLNASGASTPGSETSVDSFVNGQKPAEEWHAVAKDSWTGAGPVNTGLVNNAIKSVRIIKKGYVTGVLTPEEVMNKAEYKAMRQAFDSLPLAKQGEAVRQIVAAWSLAYQDFPVNLKKEMGRVTERIVDAINLALILNQTESRLSESQKNVDVANQIISDTVKAINDVNKKIAEKRNQQVSLTDLMNKKQKEVEDLKKIFKNHSYHRIRDAQREYDDARNKYALLASDINALQAQVSGLTARKQQAEQNKAAAEKAKADAAAKAAAEKAAAEAKAKAEAEKARKEAEEKANDEKAVLTKASEIIISVGDKAGEYLGDKYKVLSREIADNIKNFQGKTIRSYDEAMASVNKLMANPDLKINAADRDAIVNAWKAFDAEDMGNKFAALGKTFKAADYVMKANNVREKSIEGYQTGNWGPLMLEIESWVLSGIASAVALSFFSAIFGTFAMLGVFSTSLAGILAVILAGLVGALIDDNFVDKLNNEIIRPAY
modifications: Colicin U
CFU reduction after adding colicins [4]: CFU reduction was observed
CFU in mouse thigh compared with no treatment (E. coli strain b3370): no change
